Test [1] concerns mean blood pressure. Kind of test: Antihypertensive test in DOCA/saline hypertensive rats (Test Method A). It is filed as in vivo, male Wister rats. As to conditions: Rattus norvegicus, DOCA hypertensive rats, read-out: Effect Max (mean ratio of maximum decrease of blood pressure); for inhibition in vivo at 1 mg/kg: d: orally; for inhibition in vivo at 0.1 mg/kg: c: orally. The protocol: Five-week old male Wister rats were uninephrectomized under anesthesia. Deoxycorticosterone acetate (DOCA) (30 mg/kg), suspended in peanut oil, was injected subcutaneously twice a week and 1% saline was substituted for the drinking water. Animals with mean blood pressure 150-200 mmHg were used for experiment between 5 and 7 weeks after surgery. The test compounds were administered intraperitonealy or orally. Blood pressure was measured at the femoral artery by means of a pressure transducer and recorded as electrically integrated values of mean arterial pressure.

Test [2] relates to platelet aggregation induced by adenosine diphosphate (ADP). The test is described as follows: Inhibition of ADP-induced platelet aggregation in platelet rich plasma (Test Method B). It is filed as cell-based, rabbit. The conditions noted are these: ADP (2.5 μM), 37° C., 2 min, read-out: ID50, ADP. The procedure: (§1) Platelet rich plasma (PRP) which contains 6.5-7.5×10^8 platelet/ml was prepared from rabbit blood. To the 200 μl of PRP, 5 μl of calcium chloride (1 mM) and 50 μl of pH 7.4 Tris-acetate solution (5 mM) containing 120 mM NaCl and test compound were added successively, and then stirred for 2 min. at 37° C. To the solution 5 μl of adenosine diphosphate (ADP) (2.5 μM) or collagen (2.5 μg/ml) was added as an aggregation inducer. Aggregation was measured by using an aggregometer (NKK HEMA TRACER 1).

Test [3] relates to platelet aggregation induced by collagen. The test is described as follows: Inhibition of collagen-induced platelet aggregation in platelet rich plasma (Test Method B). It is filed as cell-based, rabbit. The conditions noted are these: collagen (2.5 μg/ml), 37° C., 2 min, read-out: ID50, Collagen. The procedure:
as §1

The mark [4] stands for this setting: rabbit PRP, pH 7.4, listed as Ex. 76, 2 min.
The mark [5] stands for this setting: Oryctolagus cuniculus, Platelet, pH 7.4, rabbit PRP.
The mark [6] stands for this setting: rabbit PRP, pH 7.4, listed as Ex. 75, 2 min.

SMILES strings stand for the structures. Where a name gives a salt, the structure may show the parent alone. Read-outs that look alike come from different tables or passages of the source.

As for `CC1NC(=O)NN=C1c1ccc2c(c1)CCC(=O)N2C` (single isomer, unassigned; (+)) [Example 76, (+)-5-Methyl-6-(1-methyl-2-oxo-1,2,3,4-tetrahydroquinolin-6-yl)-4,5-dihydro-1,2,4-triazin-3(2H)-one], the inhibition in vivo at 1 mg/kg in test [1] (po) is 56%. For the same compound, the IC50 in test [2] (setting [4]) was 1200 nM; in test [3] (setting [4]), 360 nM.

As for `CC1NC(=O)NN=C1c1ccc2c(c1)CCC(=O)N2C` (stereo not drawn) [Example 49-(3), 77-(2), 5-methyl-6-(1-methyl-2-oxo-1,2,3,4-tetrahydroquinolin-6-yl)-4,5-dihydro-1,2,4-triazin-3(2H)-one], in test [1] (po), the inhibition in vivo at 0.1 mg/kg amounted to 43% and the inhibition in vivo at 1 mg/kg came out at 70%. Further, the IC50 in test [2] (setting [5]) was 160 nM. In addition, the IC50 in test [3] (setting [5]) was 110 nM.

On to `CC1NC(=O)NN=C1c1ccc(Cl)cc1` (stereo not drawn) [39-(2), 6-(4-Chlorophenyl)-5-methyl-4,5-dihydro-1,2,4-triazin-3(2H)-one], for which the inhibition in vivo at 10 mg/kg came to 57.1% in test [1] (ip, a: intraperitonealy) and 38.6% in test [1] (po, b: orally).

Turning to `CC1NC(=O)NN=C1c1ccc2c(c1)CCC(=O)N2C` (single isomer, unassigned; (-)) [Example 75, (-)-5-methyl-6-(1-methyl-2-oxo-1,2,3,4-tetrahydroquinolin-6-yl)-4,5-dihydro-1,2,4-triazin-3(2H)-one], the inhibition in vivo at 0.1 mg/kg in test [1] (po) is 55%. Also, the IC50 in test [2] (setting [6]) was found to be 98 nM; in test [3] (setting [6]), 34 nM.

Consider `CC1N=C(N2CCCCC2)NN=C1c1ccccc1` (stereo not drawn) [10-(2), 5-Methyl-6-phenyl-3-piperidino-2,5-dihydro-1,2,4-triazine], for which the inhibition in vivo at 10 mg/kg in test [1] (ip, a: intraperitonealy) is 46.5%; in test [1] (po, b: orally), 50%.

In the case of `CC1N=C(N2CCOCC2)NN=C1c1ccccc1` (stereo not drawn) [8-(2), 5-methyl-3-morpholino-6-phenyl-2,5-dihydro-1,2,4-triazine hydrochloride], the inhibition in vivo at 10 mg/kg in test [1] (ip, a: intraperitonealy) worked out at 48.9%.

For the compound `CCCCN1C(=O)CCc2cc(C3=NNC(=O)NC3C)ccc21` (stereo not drawn) [68-(3), 6-(1-Butyl-2-oxo-1,2,3,4-tetrahydroquinolin-6-yl)-5-methyl-4,5-dihydro-1,2,4-triazin-3(2H)-one], the inhibition in vivo at 1 mg/kg in test [1] (po) stood at 62%. Besides, the IC50 is 140 nM in test [2] (setting [5]) and 42 nM in test [3] (setting [5]).

For the compound `CC1N=C(N2CCN(C(=O)c3ccco3)CC2)NN=C1c1ccccc1` (stereo not drawn) [4-(2), 3-[4-(2-Furoyl)-1-piperazinyl]-5-methyl-6-phenyl-2,5-dihydro-1,2,4-triazine], the inhibition in vivo at 10 mg/kg in test [1] (ip, a: intraperitonealy) was 48.9%.

On to `CC1NC(=O)N(C)N=C1c1ccc2c(c1)CCC(=O)N2C` (stereo not drawn) [Example 71, 2,5-Dimethyl-6-(1-methyl-2-oxo-1,2,3,4-tetrahydroquinolin-6-yl)-4,5-dihydro-1,2,4-triazin-3(2H)-one], for which the IC50 was determined as 9800 nM in test [2] (setting [5]) and 17000 nM in test [3] (setting [5]).

Regarding `CC1NC(=O)NN=C1c1ccccc1` (stereo not drawn) [36-(3), 5-methyl-6-phenyl-4,5-dihydro-1,2,4-triazin-3(2H)-one], in test [1] (ip, a: intraperitonealy), the inhibition in vivo at 10 mg/kg amounted to 45.2%.

As to `CC1N=C(NN)NN=C1c1ccc(Cl)cc1` (stereo not drawn) [Example 25-(4), 6-(4-chlorophenyl)-3-hydrazino-5-methyl-2,5-dihydro-1,2,4-triazine hydrochloride], the inhibition in vivo at 10 mg/kg in test [1] (ip, a: intraperitonealy) came to 51.7%; in test [1] (po, b: orally), 37.4%.

For the compound `CC1NC(=O)NN=C1c1ccc2c(c1)CCC(=O)N2` (stereo not drawn) [67-(3), 5-Methyl-6-(2-oxo-1,2,3,4-tetrahydroquinolin-6-yl)-4,5-dihydro-1,2,4-triazin-3(2H)-one], the inhibition in vivo at 0.1 mg/kg in test [1] (po) amounted to 43%. Besides, the results for the IC50 in test [2] (setting [5]) and in test [3] (setting [5]) were 54 nM and 18 nM, respectively.

In the case of `CC1NC(=O)NN=C1c1ccc(Br)cc1` (stereo not drawn) [Example 32-(3), 37-(2), 6-(4-bromophenyl)-5-methyl-4,5-dihydro-1,2,4-triazin-3(2H)-one], the inhibition in vivo at 10 mg/kg in test [1] (ip, a: intraperitonealy) stood at 61.8%; in test [1] (po, b: orally) it was 58.3%.

With `CC1N=C(NCCO)NN=C1c1ccccc1` (stereo not drawn) [6-(2), 3-(2-Hydroxyethylamino)-5-methyl-6-phenyl-2,5-dihydro-1,2,4-triazine], in test [1] (ip, a: intraperitonealy), the inhibition in vivo at 10 mg/kg was found to be 43.1%.

The record behind these values is patent publication US4616014A, “Triazine derivatives, and pharmaceutical compositions comprising the same” (Fujisawa Pharmaceutical Co., Ltd., priority 1981, dated 1986).
